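Compound exposure: 48 hours, 5 concentrations, 96-well plates. GI50 is the concentration that inhibits growth by half.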 The source made the active and inactive calls. Rule as the data show it: active = GI50 up to about 1.1 µM and inactive = higher.
Experiments:
Assay in all cases: NCI tumour cell line growth inhibition, 48 h
[1] = test system: A498
[2] = test system: ACHN
[3] = test system: HCC 2998
[4] = test system: HCT-116
[5] = test system: HCT-15
[6] = test system: HOP-62
[7] = test system: HOP-92
[8] = test system: IGROV-1
[9] = test system: K562
[10] = test system: M14
[11] = test system: Malme-3M
[12] = test system: NCI-H226
[13] = test system: RPMI-8226
[14] = test system: RXF 393
[15] = test system: SF-268
[16] = test system: SF-295
[17] = test system: SK-MEL-28
[18] = test system: SNB-19
[19] = test system: SW-620
[20] = test system: UACC-257

CC(C)Oc1cccc(N2C(n3ccnc3)=Nc3ccncc3S2(=O)=O)c1
GI50 [1]: 17.8 µM (inactive)
GI50 [2]: 10 µM (inactive)
GI50 [3]: 16.9 µM (inactive)
GI50 [4]: 13.6 µM (inactive)
GI50 [5]: 13.6 µM
GI50 [6]: 18.3 µM (inactive)
GI50 [7]: 12.7 µM (inactive)
GI50 [8]: 14.6 µM (inactive)
GI50 [9]: 10.2 µM (inactive)
GI50 [10]: 13.6 µM (inactive)
GI50 [11]: 13.5 µM (inactive)
GI50 [12]: 21.7 µM (inactive)
GI50 [13]: 3 µM (inactive)
GI50 [14]: 14.7 µM (inactive)
GI50 [15]: 16.3 µM (inactive)
GI50 [16]: 34.9 µM (inactive)
GI50 [17]: 17.9 µM (inactive)
GI50 [18]: 20.5 µM (inactive)
GI50 [19]: 12.6 µM (inactive)
GI50 [20]: 16.4 µM (inactive)

CCCCCCCCCCCC(=O)OCC(C[As](=O)(O)O)OC(=O)CCCCCCCCCCC (centres undefined)
GI50 [1]: 5.15 µM (inactive)
GI50 [2]: 2.24 µM (inactive)
GI50 [3]: 6.22 µM (inactive)
GI50 [4]: 5.61 µM (inactive)
GI50 [5]: 8.39 µM
GI50 [6]: 26.9 µM (inactive)
GI50 [7]: 1.88 µM (inactive)
GI50 [8]: 1.74 µM (inactive)
GI50 [9]: 5.32 µM (inactive)
GI50 [10]: 1.97 µM (inactive)
GI50 [11]: 2.48 µM (inactive)
GI50 [12]: 16.2 µM (inactive)
GI50 [13]: 7.4 µM (inactive)
GI50 [14]: 2.43 µM (inactive)
GI50 [15]: 5.09 µM (inactive)
GI50 [16]: 10.4 µM (inactive)
GI50 [17]: 2.96 µM (inactive)
GI50 [18]: 3.28 µM (inactive)
GI50 [19]: 12.1 µM (inactive)
GI50 [20]: 7.52 µM (inactive)

CCOC(=O)c1cn2c(n1)sc1cc([N+](=O)[O-])ccc12
GI50 [1]: > 100 µM (inactive)
GI50 [2]: 92.3 µM (inactive)
GI50 [3]: > 100 µM (inactive)
GI50 [4]: > 100 µM (inactive)
GI50 [5]: > 100 µM
GI50 [6]: 37 µM (inactive)
GI50 [7]: > 100 µM (inactive)
GI50 [8]: > 100 µM (inactive)
GI50 [9]: > 100 µM (inactive)
GI50 [10]: > 100 µM (inactive)
GI50 [11]: > 100 µM (inactive)
GI50 [12]: > 100 µM (inactive)
GI50 [13]: > 100 µM (inactive)
GI50 [14]: > 100 µM (inactive)
GI50 [15]: > 100 µM (inactive)
GI50 [16]: 37.3 µM (inactive)
GI50 [17]: > 100 µM (inactive)
GI50 [18]: 78.2 µM (inactive)
GI50 [19]: > 100 µM (inactive)
GI50 [20]: > 100 µM (inactive)

COc1ccc(N(C)C(=O)N(C)c2ccc([N+](=O)[O-])cc2)cc1
GI50 [1]: 66.4 µM (inactive)
GI50 [2]: > 100 µM (inactive)
GI50 [3]: 33 µM (inactive)
GI50 [4]: 27.4 µM (inactive)
GI50 [5]: 30.1 µM
GI50 [6]: 39.4 µM (inactive)
GI50 [7]: 25.5 µM (inactive)
GI50 [8]: 43.2 µM (inactive)
GI50 [9]: 18.4 µM (inactive)
GI50 [10]: 34 µM (inactive)
GI50 [11]: 36.2 µM (inactive)
GI50 [12]: 23 µM (inactive)
GI50 [13]: 51.1 µM (inactive)
GI50 [14]: 14.3 µM (inactive)
GI50 [15]: 82 µM (inactive)
GI50 [17]: 50.2 µM (inactive)
GI50 [18]: > 100 µM (inactive)
GI50 [19]: 23.3 µM (inactive)
GI50 [20]: 26.1 µM (inactive)

CCCCc1c2cnccc2c(CCCC)c2c1[nH]c1ccccc12
GI50 [1]: 15.5 µM (inactive)
GI50 [2]: 10 µM (inactive)
GI50 [3]: 23.9 µM (inactive)
GI50 [4]: 3.59 µM (inactive)
GI50 [5]: 6.84 µM
GI50 [6]: 3.85 µM (inactive)
GI50 [7]: 12.8 µM (inactive)
GI50 [8]: 12.4 µM (inactive)
GI50 [9]: 3.54 µM (inactive)
GI50 [10]: 15.7 µM (inactive)
GI50 [11]: 11.9 µM (inactive)
GI50 [12]: 15.7 µM (inactive)
GI50 [13]: 2.9 µM (inactive)
GI50 [14]: 7.13 µM (inactive)
GI50 [15]: 14.9 µM (inactive)
GI50 [16]: 7.19 µM (inactive)
GI50 [17]: 6.34 µM (inactive)
GI50 [18]: 7.19 µM (inactive)
GI50 [19]: 12.9 µM (inactive)
GI50 [20]: 15.1 µM (inactive)

CC(C)(C)OC(=O)NC(Cc1ccc(OCc2ccccc2)cc1)C(=O)NC(COCc1ccccc1)C(=O)Oc1c(Cl)c(Cl)c(Cl)c(Cl)c1Cl (centres undefined)
GI50 [1]: 23.1 µM (inactive)
GI50 [2]: 24.4 µM (inactive)
GI50 [3]: 20.1 µM (inactive)
GI50 [4]: 16.4 µM (inactive)
GI50 [5]: 17.8 µM
GI50 [6]: 16.4 µM (inactive)
GI50 [7]: 13.8 µM (inactive)
GI50 [8]: 15.8 µM (inactive)
GI50 [9]: > 100 µM (inactive)
GI50 [10]: 20.8 µM (inactive)
GI50 [11]: 25.1 µM (inactive)
GI50 [12]: 21.4 µM (inactive)
GI50 [13]: 37.7 µM (inactive)
GI50 [14]: 24.8 µM (inactive)
GI50 [15]: 24.4 µM (inactive)
GI50 [16]: 19.2 µM (inactive)
GI50 [17]: 25.1 µM (inactive)
GI50 [18]: 29.3 µM (inactive)
GI50 [19]: 25.6 µM (inactive)
GI50 [20]: 27.6 µM (inactive)

CSC(=N)N1N=C2/C(=C/c3ccccc3)CCC[C@H]2[C@H]1c1ccccc1
GI50 [1]: 4.11 µM (inactive)
GI50 [2]: 3.36 µM (inactive)
GI50 [3]: 3.27 µM (inactive)
GI50 [4]: 2.83 µM (inactive)
GI50 [5]: 6.52 µM
GI50 [6]: 6.65 µM (inactive)
GI50 [7]: 4.28 µM (inactive)
GI50 [8]: 2.12 µM (inactive)
GI50 [9]: 1.91 µM (inactive)
GI50 [10]: 3.67 µM (inactive)
GI50 [11]: 1.93 µM (inactive)
GI50 [12]: 2.64 µM (inactive)
GI50 [13]: 2.18 µM (inactive)
GI50 [14]: 2.86 µM (inactive)
GI50 [15]: 15.2 µM (inactive)
GI50 [16]: 4.69 µM (inactive)
GI50 [17]: 3.13 µM (inactive)
GI50 [18]: 6.47 µM (inactive)
GI50 [19]: 3.91 µM (inactive)
GI50 [20]: 2.37 µM (inactive)
